In one assay the target is MNK2 (Homo sapiens (Human), UniProt Q9HBH9). As to the kind of experiment: MNK Biochemical Enzymatic Assay (ADP-Glo), MNK2 binding assay. The gist of the method: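 Human MNK1 or MNK2 was preincubated with a 10-point, 1:3 serial dilution of compound for 15 min at 25 °C. Substrate was then added and the reaction ran 60 min at 25 °C. ADP formed was read by ADP-Glo luminescence, and IC50 came from non-linear regression.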
(In ADP-Glo the light output rises with the ADP produced.)

The test system of another assay is TMD-8 cell p-IF4E. As to the kind of experiment: p-eIF4E Signaling Cellular Assay (CisBio HTRF) in TMD-8 cells. It counts as cell-based. To be noted: 40 min treatment. Here is the method:
p-eIF4E Signaling Cellular Assay. Phosphorylated eIF4E is assayed using the CisBio p-Eif4E HTRF assay kit. Reagents and equipment used in the assay are listed below, followed by the protocol.
Cell medium: RPMI 1640+10% FBS+1*PS, TMD-8 were cultured as recommended and assayed in exponential growth phase. • a) Plate 30 μL of cells in 384 white assay plate in appropriate medium and proper cell density (20 k/well) based on Optimization at 37° C. under 5% CO2 atmosphere • b) Dispense 90 nL of compounds diluted in DMSO and treat for 40 min at 37° C. under 5% CO2 atmosphere • c) Remove cell supernatant by flicking the plate • d) Add 16 μL of supplemented lysis buffer (1×) for 30 minutes at RT under shaking • e) Add 4 μL of premixed antibody solutions prepared in the detection buffer. Cover the plate with a plate sealer. Incubate 0/N at RT • f) Read the fluorescence emission at 665 nm and 620 nm on Envision • g) Data analysis • (1) Ratio […] signal is calculated for each well • (2) % Inhibition is calculated as follow:
% inhibition=100−(Signalcmpd-SignalAve_PC)/(SignalAve_VC-SignalAve_PC)×100. • (3) Calculate IC50 and Plot effect-dose curve of cmpds:
Calculate IC50 by fitting % Inhibition values and log of compound concentrations to nonlinear regression (dose response−variable slope) with Graphpad 8.0.
Y=Bottom+(Top−Bottom)/(1+10^((Log IC50−X)*Hill Slope)) • X: log of Inhibitor concentration; Y: % Inhibition.

Structures can show the parent of a compound that is named as a salt.

Chain of MNK2 (Q9HBH9 whole entry): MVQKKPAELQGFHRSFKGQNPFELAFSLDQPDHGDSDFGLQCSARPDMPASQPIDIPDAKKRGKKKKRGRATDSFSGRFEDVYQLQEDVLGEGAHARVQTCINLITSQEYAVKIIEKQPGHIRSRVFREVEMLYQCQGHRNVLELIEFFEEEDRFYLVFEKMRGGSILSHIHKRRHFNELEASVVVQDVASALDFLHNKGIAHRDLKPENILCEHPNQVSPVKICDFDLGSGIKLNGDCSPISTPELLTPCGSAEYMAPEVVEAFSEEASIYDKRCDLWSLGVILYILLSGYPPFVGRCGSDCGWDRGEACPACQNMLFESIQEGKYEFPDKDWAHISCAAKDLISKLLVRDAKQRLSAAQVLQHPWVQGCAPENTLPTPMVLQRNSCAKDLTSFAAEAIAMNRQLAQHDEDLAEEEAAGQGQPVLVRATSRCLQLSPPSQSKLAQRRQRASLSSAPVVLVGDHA

Usually IC50 stands for the midpoint of a concentration-inhibition curve. For `Cc1cc(Nc2cc(Nc3ccc(N4CCOCC4)cn3)ncn2)[n+]([O-])c2c1C(=O)NC21CCCCC1` [Compound XXIX-AAJ, 4′-methyl-2′-((6-((5-morpholinopyridin-2-yl)amino)pyrimidin-4-yl)amino)-5′-oxo-5′,6′-dihydrospiro[cyclohexane-1,7′-pyrrolo[3,4-b]pyridine] 1′-oxide], the IC50 lay within 0.1 to 10 nM at MNK2 and 0.1 to 10 nM with TMD-8 cell p-IF4E (Homo sapiens, TMD8, 40 min).

In the case of `O=C1NC2(CCCCC2)c2cc(Nc3ncnc4[nH]cnc34)sc21` [Compound XVII, 2′-((9H-Purin-6-yl)amino)spiro[cyclohexane-1,4′-thieno[2,3-c]pyrrol]-6′(5′H)-one], the IC50 on MNK2 fell in the range of 0.1 to 10 nM; in the assay on TMD-8 cell p-IF4E (Homo sapiens, TMD8, 40 min), 100 to 1000 nM.

As to `CC(=O)N(C)c1ccnc(Nc2cc(Nc3nc4c(s3)C(=O)NC43CCCCC3)ncn2)c1` [Compound XXVIII-P, N-methyl-N-(2-((6-((6′-oxo-5′,6′-dihydrospiro[cyclohexane-1,4′-pyrrolo[3,4-d]thiazol]-2′-yl)amino)pyrimidin-4-yl)amino)pyridin-4-yl)acetamide], the IC50 fell in the range of 0.1 to 10 nM at MNK2 and 10 to 100 nM in the assay with TMD-8 cell p-IF4E (Homo sapiens, TMD8, 40 min).

For `COc1c(N)ncnc1Nc1cc2c(s1)C(=O)NC21CCCCC1` [Compound X-C, 2′-((6-amino-5-methoxypyrimidin-4-yl)amino)spiro[cyclohexane-1,4′-thieno[2,3-c]pyrrol]-6′(5′H)-one], the IC50 lay within 0.1 to 10 nM at MNK2 and 10 to 100 nM in the assay on TMD-8 cell p-IF4E (Homo sapiens, TMD8, 40 min).

Turning to `O=C1NC2(CCCCC2)c2cc(Nc3cc(NCCO)ncn3)sc21` [Compound XXIII-J, 2′-((6-((2-Hydroxyethyl)amino)pyrimidin-4-yl)amino)spiro[cyclohexane-1,4′-thieno[2,3-c]pyrrol]-6′(5′H)-one], the concentration for half-maximal inhibition (IC50) at MNK2 lay in the range of 0.1 to 10 nM; with TMD-8 cell p-IF4E (Homo sapiens, TMD8, 40 min), 100 to 1000 nM.

For the compound `O=C1NC2(CCCCC2)c2cc(Nc3cc(NC4CCOC4)ncn3)sc21` (stereo not shown) [Compound XXIII-Y, 2′-((6-((tetrahydrofuran-3-yl)amino)pyrimidin-4-yl)amino)spiro[cyclohexane-1,4′-thieno[2,3-c]pyrrol]-6′(5′H)-one], the IC50 on MNK2 fell in the range of 0.1 to 10 nM; with TMD-8 cell p-IF4E (Homo sapiens, TMD8, 40 min), 10 to 100 nM.

`CN1CCN(c2ccc(Nc3cc(Nc4nc5c(s4)C(=O)NC54CCCCC4)ncn3)nc2)CC1` [Compound XXVIII-R, 2′-((6-((5-(4-methylpiperazin-1-yl)pyridin-2-yl)amino)pyrimidin-4-yl)amino)spiro [cyclohexane-1,4′-pyrrolo[3,4-d]thiazol]-6′(5′H)-one]: the IC50 on MNK2 fell in the range of 0.1 to 10 nM; with TMD-8 cell p-IF4E (Homo sapiens, TMD8, 40 min), 0.1 to 10 nM.

As to `Cc1ccnc(Nc2cc(Nc3cc(C)c4c([n+]3[O-])C3(CCCCC3)NC4=O)ncn2)c1` [Compound XXIX-AAI, 4′-methyl-2′-((6-((4-methylpyridin-2-yl)amino)pyrimidin-4-yl)amino)-5′-oxo-5′,6′-dihydrospiro[cyclohexane-1,7′-pyrrolo[3,4-b]pyridine] 1′-oxide], the half-inhibitory concentration (IC50) at MNK2 was 0.1 to 10 nM; in the assay on TMD-8 cell p-IF4E (Homo sapiens, TMD8, 40 min), 0.1 to 10 nM.

As for `O=C1NC2(CCCCC2)c2nc(Nc3ccnc(N[C@H]4CCOC4)c3)sc21` [Compound XXVIII-H, (S)-2′-((2-((tetrahydrofuran-3-yl)amino)pyridin-4-yl)amino)spiro[cyclohexane-1,4′-pyrrolo[3,4-d]thiazol]-6′(5′H)-one], the IC50 on MNK2 lay within 0.1 to 10 nM; in the assay on TMD-8 cell p-IF4E (Homo sapiens, TMD8, 40 min), 10 to 100 nM.

Consider `Cc1cc(Nc2cc(Nc3ncn(C)n3)ncn2)[n+]([O-])c2c1C(=O)NC21CCCCC1` [Compound XXIX-AD, 4′-methyl-2′-((6-((1-methyl-Ill-1,2,4-triazol-3-yl)amino)pyrimidin-4-yl)amino)-5′-oxo-5′,6′-dihydrospiro[cyclohexane-1,7′-pyrrolo[3,4-b]pyridine] 1′-oxide], for which the IC50 at MNK2 was 0.1 to 10 nM; in the assay on TMD-8 cell p-IF4E (Homo sapiens, TMD8, 40 min) it was 10 to 100 nM.

Consider `Cc1cc(Nc2cc(N[C@@H]3COC[C@H]3O)ncn2)[n+]([O-])c2c1C(=O)NC21CCCCC1` (relative stereo) [Compound XXIX-AE, 2′-((6-((trans-4-hydroxytetrahydrofuran-3-yl)amino)pyrimidin-4-yl)amino)-4′-methyl-5′-oxo-5′,6′-dihydrospiro[cyclohexane-1,7′-pyrrolo[3,4-b]pyridine] 1′-oxide], for which the IC50 fell in the range of 0.1 to 10 nM on MNK2 and 10 to 100 nM with TMD-8 cell p-IF4E (Homo sapiens, TMD8, 40 min).

Turning to `O=C1NC2(CCCCC2)c2cc(Nc3ccnc(N[C@H]4CCOC4)c3)sc21` [Compound XXIV-B, (S)-2′-((2-((tetrahydrofuran-3-yl)amino)pyridin-4-yl)amino)spiro[cyclohexane-1,4′-thieno[2,3-c]pyrrol]-6′(5′H)-one], the IC50 was in the range of 0.1 to 10 nM on MNK2 and 10 to 100 nM with TMD-8 cell p-IF4E (Homo sapiens, TMD8, 40 min).

As to `O=C1NC2(CCCCC2)c2cc(Nc3cc(NCC4CCCC4)ncn3)sc21` [Compound XXIV-H, 2′-((6-((cyclopentylmethyl)amino)pyrimidin-4-yl)amino)spiro[cyclohexane-1,4′-thieno[2,3-c]pyrrol]-6′(5′H)-one], the half-maximal inhibitory concentration (IC50) at MNK2 lay within 10 to 100 nM; with TMD-8 cell p-IF4E (Homo sapiens, TMD8, 40 min) it was 10 to 100 nM.

For the compound `O=C1NC2(CCCCC2)c2cc(Nc3ncnc4[nH]ncc34)sc21` [Compound XVII-B, 2′-((1H-pyrazolo[3,4-d]pyrimidin-4-yl)amino)spiro[cyclohexane-1,4′-thieno[2,3-c]pyrrol]-6′(5′H)-one], the IC50 at MNK2 was in the range of 0.1 to 10 nM; with TMD-8 cell p-IF4E (Homo sapiens, TMD8, 40 min), 100 to 1000 nM.

Consider `O=C1NC2(CCCCC2)c2nc(Nc3cc(NC(=O)C4CCCC4)ncn3)sc21` [Compound XXVIII-C, N-(6-((6′-oxo-5′,6′-dihydrospiro[cyclohexane-1,4′-pyrrolo[3,4-d]thiazol]-2′-yl)amino)pyrimidin-4-yl)cyclopentanecarboxamide], for which the IC50 on MNK2 was in the range of 0.1 to 10 nM; in the assay on TMD-8 cell p-IF4E (Homo sapiens, TMD8, 40 min), 10 to 100 nM.

`Cc1cc(Nc2cc(Nc3ccccc3)ncn2)[n+]([O-])c2c1C(=O)NC21CCCCC1` [Compound XXIX-AH, 4′-methyl-5′-oxo-2′-((6-(phenylamino)pyrimidin-4-yl)amino)-5′,6′-dihydrospiro[cyclohexane-1,7′-pyrrolo[3,4-b]pyridine] 1′-oxide]: the half-maximal inhibitory concentration (IC50) lay within 0.1 to 10 nM at MNK2 and 0.1 to 10 nM in the assay with TMD-8 cell p-IF4E (Homo sapiens, TMD8, 40 min).

As to `Cc1cc(Nc2cc(NC(=O)C3CCCO3)ncn2)[n+]([O-])c2c1C(=O)NC21CCCCC1` (stereo not shown) [Compound XXIX-AW, 4′-methyl-5′-oxo-2′-((6-(tetrahydrofuran-2-carboxamido)pyrimidin-4-yl)amino)-5′,6′-dihydrospiro[cyclohexane-1,7′-pyrrolo[3,4-b]pyridine] 1′-oxide], the IC50 at MNK2 fell in the range of 0.1 to 10 nM; in the assay on TMD-8 cell p-IF4E (Homo sapiens, TMD8, 40 min) it was 10 to 100 nM.

Consider `Cc1ccc(Nc2cc(Nc3cc(C)c4c([n+]3[O-])C3(CCCCC3)NC4=O)ncn2)nc1` [Compound XXIX-AAA, 4′-methyl-2′-((6-((5-methylpyridin-2-yl)amino)pyrimidin-4-yl)amino)-5′-oxo-5′,6′-dihydrospiro[cyclohexane-1,7′-pyrrolo[3,4-b]pyridine] 1′-oxide], for which the IC50 lay within 0.1 to 10 nM at MNK2 and 0.1 to 10 nM in the assay on TMD-8 cell p-IF4E (Homo sapiens, TMD8, 40 min).

Consider `Cc1cc(Nc2cc(Nc3cccc(CO)n3)ncn2)[n+]([O-])c2c1C(=O)NC21CCCCC1` [Compound XXIX-AU, 2′-((6-((6-(hydroxymethyl)pyridin-2-yl)amino)pyrimidin-4-yl)amino)-4′-methyl-5′-oxo-5′,6′-dihydrospiro[cyclohexane-1,7′-pyrrolo[3,4-b]pyridine] 1′-oxide formate salt], for which the IC50 on MNK2 lay within 0.1 to 10 nM; with TMD-8 cell p-IF4E (Homo sapiens, TMD8, 40 min) it was 0.1 to 10 nM.

Regarding `O=C1NC2(CCCCC2)c2nc(Nc3cc(Nc4ccc(N5CCOCC5)cn4)ncn3)sc21` [Compound XXVIII-Q, 2′-((6-((5-morpholinopyridin-2-yl)amino)pyrimidin-4-yl)amino)spiro[cyclohexane-1,4′-pyrrolo[3,4-d]thiazol]-6′(5′H)-one], the half-inhibitory concentration (IC50) at MNK2 fell in the range of 0.1 to 10 nM; in the assay with TMD-8 cell p-IF4E (Homo sapiens, TMD8, 40 min), 0.1 to 10 nM.

In the case of `Cn1ccc(Nc2cc(Nc3cc4c(s3)C(=O)NC43CCCCC3)ncn2)n1` [Compound XXIII-P, 2′-((6-((1-methyl-1H-pyrazol-3-yl)amino)pyrimidin-4-yl)amino)spiro[cyclohexane-1,4′-thieno[2,3-c]pyrrol]-6′(5′H)-one], the IC50 lay in the range of 0.1 to 10 nM on MNK2 and 10 to 100 nM in the assay on TMD-8 cell p-IF4E (Homo sapiens, TMD8, 40 min).

Turning to `Cc1cc(Nc2cc(N[C@H]3C[C@@](C)(O)C3)ncn2)[n+]([O-])c2c1C(=O)NC21CCCCC1` [Compound XXIX-AAC, 4′-methyl-5′-oxo-2′-[(6-{[trans-3-hydroxy-3-methylcyclobutyl]amino}pyrimidin-4-yl)amino]-6′H-spiro[cyclohexane-1,7′-pyrrolo[3,4-b]pyridin]-1′-ium-1′-olate], the results for the IC50 at MNK2 and in the assay with TMD-8 cell p-IF4E were 0.1 to 10 nM and 10 to 100 nM, respectively.

`O=C1NC2(CCCCC2)c2cc(Nc3cc(N[C@H]4CCOC4)ncn3)sc21` [Compound XXIV-C, (S)-2′-((6-((tetrahydrofuran-3-yl)amino)pyrimidin-4-yl)amino)spiro[cyclohexane-1,4′-thieno[2,3-c]pyrrol]-6′(5′H)-one]: the concentration for half-maximal inhibition (IC50) lay within 0.1 to 10 nM on MNK2 and 10 to 100 nM with TMD-8 cell p-IF4E (Homo sapiens, TMD8, 40 min).

The values above are taken from patent publication US20240092799A1, “MNK INHIBITORS” (Hepagene Therapeutics (HK) Limited, priority 2020, published 2024).
